Literature values, collected in US11833118B2 (priority 2016, dated 2023).

Legend:
[1] = not given; remark: listed apart in the source

Structure (SMILES) | crossing of the blood-brain barrier relative to Δ9THC (in vivo) | psychoactivity relative to Δ9THC (man) | Vapor Pressure at 25° C. [1] | Vapor Pressure at 53.8° C. [1]
CCCCCc1cc(O)c2c(c1)OC(C)(C)[C@@H]1CCC(CO)=C[C@@H]21 [11-hydroxy-Δ9THC] | more rapidly crosses the blood-brain barrier | more psychoactive than Δ9THC |  | 
O [Water] |  |  | 23.8 mm Hg | 111.4 mm Hg
C=C(C)[C@H]1CC=C(C)CC1 [d-Limonene] |  |  | 2.0 mm Hg | 10 mm Hg
